Measurements: article PMC2363502
Several values for one entry are separate records, joined by “and”; a condition that tells them apart may be missing. Identical values can stand only once. Like-named read-outs stand apart in the source and are kept apart here.

How the values were obtained:
[1] = parameters: method as in data on file; conditions: rats and dogs; ref data on file; cited from earlier work
[2] = short-term single or repeat bolus injections of high doses; preclinical background, ref not given; cited from earlier work
[3] = tested on: human HCT-116 tumour cell line; parameters: method as in data on file; conditions: subcutaneous HCT-116 in nude mice; ref data on file; cited from earlier work
[4] = parameters: method as in unpublished; conditions: rat, basis of starting dose; ref unpublished; cited from earlier work
[5] = tested on: variety of different tumour cell lines; parameters: method as in H Mett, unpublished data; conditions: including multi-drug-resistant and highly metastatic variants; ref H Mett, unpublished data; cited from earlier work
[6] = tested on: S-adenosylmethionine decarboxylase (SAMDC); conditions: cited from earlier work
[7] = phase I pharmacokinetics in plasma and urine; format: in vivo, human
Procedure: (§1) Preclinical testing confirmed promising antiproliferative activity. […] Physical examination was performed weekly. […] N-Acetyl-SPERMINE SSAT SSAT […] Analysis was descriptive only. […] Patient characteristics are described in Table 1. […] Three patients completed the full six cycles of treatment. Of these, two received the combination 5FU/SAM486A from cycle 3 onwards. Five patients recorded a best response of stable disease. Of these, three received the combination 5FU/SAM486A from cycle 3 onwards (see below).

[8] = tested on: L-1210 leukaemia; parameters: method as in Dorhout et al, 1995; conditions: treated L-1210 leukaemia-bearing animals; ref Dorhout et al, 1995; cited from earlier work
[9] = phase I safety and tolerability, 120 h continuous infusion every 4 weeks
[10] = tested on: polyamine pools and SAMDC activity in leukocytes; test: polyamines and SAMDC activity in peripheral blood leukocytes; format: in vivo, human
Procedure: as §1

[11] = Table 3, 6 mg m-2 cycle-1, 4 patients studied
[12] = Table 3, 12 mg m-2 cycle-1, 3 patients studied
[13] = Table 3, 24 mg m-2 cycle-1, 3 patients studied
[14] = Table 3, 400 mg m-2 cycle-1, 6 patients studied
[15] = Table 3, 550 mg m-2 cycle-1, 6 patients studied
[16] = Table 3, 700 mg m-2 cycle-1, 5 patients studied
[17] = Table 3, all dose levels, 39 patients
[18] = Table 3, all dose levels, 39 patients, incl. combination
[19] = Table 4, after infusion (day 6-28), 550 mg m-2 cycle-1, 6 patients studied
[20] = Table 4, after infusion (day 6-28), 700 mg m-2 cycle-1, 5 patients studied
[21] = Table 4, after infusion (day 6-28), all dose levels, 39 patients
[22] = Table 4, after infusion (days 6-28), 3 mg m-2 cycle-1, 3 patients studied
[23] = Table 4, after infusion (days 6-28), 6 mg m-2 cycle-1, 4 patients studied
[24] = Table 4, after infusion (days 6-28), 24 mg m-2 cycle-1, 3 patients studied
[25] = Table 4, after infusion (days 6-28), 96 mg m-2 cycle-1, 3 patients studied
[26] = Table 4, after infusion (days 6-28), 400 mg m-2 cycle-1, 6 patients studied
[27] = Table 4, after infusion (days 6-28), 550 mg m-2 cycle-1, 6 patients studied
[28] = Table 4, after infusion (days 6-28), 700 mg m-2 cycle-1, 5 patients studied
[29] = Table 4, after infusion (days 6-28), all dose levels, 39 patients
[30] = Table 4, during infusion (day 1-5), 700 mg m-2 cycle-1, 5 patients studied
[31] = Table 4, during infusion (day 1-5), all dose levels, 39 patients

SMILES: N=C(N)c1cccc2c1CCC2=NN=C(N)N [SAM486A]
- metabolism and excretion [1]: hardly metabolized and predominantly renally excreted
- plasma clearance and distribution [1]: multi-exponential with extensive distribution outside the plasma compartment
- acute toxicity findings [2]: acute cardiovascular and respiratory
- drug level in tumours compared to plasma elimination profile [3]: marked accumulation of the drug was seen in tumours
- no-adverse-effect level [4]: 0.06 mg/kg/day
- growth inhibitory IC50 [5]: micromolar range
- fold more active than MGBG ([6]; SAMDC inhibition in vitro, ref Regenass et al, 1994): approximately 200 fold
- IC50 ([6]; as quoted in results and discussion, read-out: IC50 required in in vitro experiments for inhibition of SAMDC): 4.7 nM
- IC50 for inhibition of SAMDC as plasma concentration ([6]; as quoted in results): 1.1 ng/mL
- IC50 ([6]; in vitro, ref Regenass et al, 1994, read-out: IC50 for SAMDC): 4.7 nM
- mean terminal elimination t1/2 ([7]; all patients included in the analysis, standard deviation 23.1 h): 48.6 h
- fraction of total drug administered excreted in urine ([7]; day 1): Approximately 3%
- plasma SAM486A concentrations ([7]; first 10 patients at lowest dose levels, significant portions of sampling interval): below the limit of quantitation
- terminal half-life (approximate) ([7]; plasma, patients): approximately 2 days
- SAMDC activity and putrescine pools in tumours [8]: decreased SAMDC activity and elevated putrescine pools
- patients with grade 4 granulocytopenia ([9]; 550 mg m-2 cycle-1, six patients): three
- maximum tolerated dose (MTD) ([9]; 120 h continuous infusion every 4 weeks): 400 mg m-2 cycle-1
- correlation coefficient AUC vs granulocytopenia ([9]; Figure 4): 0.6931
- correlation coefficient dose vs granulocytopenia ([9]; Figure 4): 0.5814
- Haemoglobin grade 1-4, no. of patients ([9]; Table 3, 3 mg m-2 cycle-1, 3 patients studied): 2 patients
- Haemoglobin grade 1-4, no. of patients [9, 11]: 2 patients
- Thrombocytes (platelets) grade 1-4, no. of patients [9, 11]: 1 patients
- Thrombocytes grade 3-4, no. of patients [9, 11]: 1 patients
- Haemoglobin grade 1-4, no. of patients [9, 12]: 2 patients
- Haemoglobin grade 3-4, no. of patients [9, 12]: 1 patients
- Haemoglobin grade 1-4, no. of patients [9, 13]: 3 patients
- Haemoglobin grade 3-4, no. of patients [9, 13]: 1 patients
- Haemoglobin grade 1-4, no. of patients ([9]; Table 3, 48 mg m-2 cycle-1, 4 patients studied): 2 patients
- Haemoglobin grade 1-4, no. of patients ([9]; Table 3, 96 mg m-2 cycle-1, 3 patients studied): 1 patients
- Leukocytes (WBC) grade 1-4, no. of patients ([9]; Table 3, 200 mg m-2 cycle-1, 2 patients studied): 1 patients
- Granulocytes (AGC) grade 1-4, no. of patients [9, 14]: 2 patients
- Granulocytes (AGC) grade 3-4, no. of patients [9, 14]: 1 patients
- Haemoglobin grade 1-4, no. of patients [9, 14]: 3 patients
- Leukocytes (WBC) grade 1-4, no. of patients [9, 14]: 2 patients
- Granulocytes (AGC) grade 1-4, no. of patients [9, 15]: 4 patients
- Granulocytes (AGC) grade 3-4, no. of patients [9, 15]: 4 patients
- Haemoglobin grade 1-4, no. of patients [9, 15]: 4 patients
- Haemoglobin grade 3-4, no. of patients [9, 15]: 1 patients
- Leukocytes (WBC) grade 1-4, no. of patients [9, 15]: 5 patients
- Leukocytes (WBC) grade 3-4, no. of patients [9, 15]: 3 patients
- Thrombocytes (platelets) grade 1-4, no. of patients [9, 15]: 1 patients
- Thrombocytes grade 3-4, no. of patients [9, 15]: 1 patients
- Granulocytes (AGC) grade 1-4, no. of patients [9, 16]: 4 patients
- Granulocytes (AGC) grade 3-4, no. of patients [9, 16]: 3 patients
- Haemoglobin grade 1-4, no. of patients [9, 16]: 2 patients
- Haemoglobin grade 3-4, no. of patients [9, 16]: 1 patients
- Leukocytes (WBC) grade 1-4, no. of patients [9, 16]: 4 patients
- Leukocytes (WBC) grade 3-4, no. of patients [9, 16]: 3 patients
- Thrombocytes (platelets) grade 1-4, no. of patients [9, 16]: 2 patients
- Haemoglobin grade 1-4, Total (%) [9, 17]: 21 (54) patients (%)
- Haemoglobin grade 3-4, Total (%) [9, 17]: 4 (10) patients (%)
- Thrombocytes grade 3-4, Total (%) [9, 17]: 2 (5) patients (%)
- Granulocytes (AGC) grade 1-4, Total (%) [9, 18]: 12 (31) patients (%)
- Granulocytes (AGC) grade 3-4, Total (%) [9, 18]: 9 (23) patients (%)
- Leukocytes (WBC) grade 1-4, Total (%) [9, 18]: 14 (36) patients (%)
- Leukocytes (WBC) grade 3-4, Total (%) [9, 18]: 7 (18) patients (%)
- Fatigue grade 3-4, no. of patients ([9]; Table 4, after infusion (day 6-28), 400 mg m-2 cycle-1, 6 patients studied): 1 patients
- Anorexia grade 3-4, no. of patients [9, 19]: 1 patients
- Atrial fibrillation grade 3-4, no. of patients [9, 19]: 1 patients
- Condition aggravated grade 3-4, no. of patients [9, 19]: 1 patients
- Dementia grade 3-4, no. of patients [9, 20]: 1 patients
- Dyspnea grade 3-4, no. of patients [9, 20]: 1 patients
- Fatigue grade 3-4, no. of patients [9, 20]: 1 patients
- Somnolence grade 3-4, no. of patients [9, 20]: 1 patients
- Vesicular rash grade 3-4, no. of patients [9, 20]: 1 patients
- Anorexia grade 3-4, Total (%) [9, 21]: 1 (3) patients (%)
- Atrial fibrillation grade 3-4, Total (%) [9, 21]: 1 (3) patients (%)
- Condition aggravated grade 3-4, Total (%) [9, 21]: 1 (3) patients (%)
- Dementia grade 3-4, Total (%) [9, 21]: 1 (3) patients (%)
- Dyspnea grade 3-4, Total (%) [9, 21]: 1 (3) patients (%)
- Fatigue grade 3-4, Total (%) [9, 21]: 2 (5) patients (%)
- Somnolence grade 3-4, Total (%) [9, 21]: 1 (3) patients (%)
- Vesicular rash grade 3-4, Total (%) [9, 21]: 1 (3) patients (%)
- Mucositis nos grade 3-4, Total (%) ([9]; Table 4, after infusion (day 6-28), all dose levels, 39 patients, incl. combination): 1 (3) patients (%)
- Anorexia grade 1-4, no. of patients [9, 22]: 1 patients
- Fatigue grade 1-4, no. of patients [9, 22]: 1 patients
- Fatigue grade 1-4, no. of patients [9, 23]: 1 patients
- Nausea grade 1-4, no. of patients [9, 23]: 1 patients
- Fatigue grade 1-4, no. of patients ([9]; Table 4, after infusion (days 6-28), 12 mg m-2 cycle-1, 3 patients studied): 1 patients
- Fatigue grade 1-4, no. of patients [9, 24]: 1 patients
- Nausea grade 1-4, no. of patients [9, 24]: 1 patients
- Vomiting grade 1-4, no. of patients [9, 24]: 1 patients
- Nausea grade 1-4, no. of patients [9, 25]: 1 patients
- Vomiting grade 1-4, no. of patients [9, 25]: 1 patients
- Anorexia grade 1-4, no. of patients [9, 26]: 3 patients
- Fatigue grade 1-4, no. of patients [9, 26]: 2 patients
- Nausea grade 1-4, no. of patients [9, 26]: 1 patients
- Anorexia grade 1-4, no. of patients [9, 27]: 1 patients
- Fatigue grade 1-4, no. of patients [9, 27]: 2 patients
- Nausea grade 1-4, no. of patients [9, 27]: 3 patients
- Vomiting grade 1-4, no. of patients [9, 27]: 3 patients
- Fatigue grade 1-4, no. of patients [9, 28]: 2 patients
- Nausea grade 1-4, no. of patients [9, 28]: 2 patients
- Vomiting grade 1-4, no. of patients [9, 28]: 3 patients
- Anorexia grade 1-4, Total (%) [9, 29]: 5 (13) patients (%)
- Fatigue grade 1-4, Total (%) [9, 29]: 10 (26) patients (%)
- Vomiting grade 1-4, Total (%) [9, 29]: 8 (21) patients (%)
- Nausea grade 1-4, Total (%) ([9]; Table 4, after infusion (days 6-28), all dose levels, 39 patients, incl. combination): 10 (26) patients (%)
- Asthenia grade 3-4, no. of patients ([9]; Table 4, during infusion (day 1-5), 550 mg m-2 cycle-1, 6 patients studied): 1 patients
- Condition aggravated grade 3-4, no. of patients [9, 30]: 1 patients
- Vesicular rash grade 3-4, no. of patients [9, 30]: 1 patients
- Vomiting grade 3-4, no. of patients [9, 30]: 1 patients
- Asthenia grade 3-4, Total (%) [9, 31]: 1 (3) patients (%)
- Condition aggravated grade 3-4, Total (%) [9, 31]: 1 (3) patients (%)
- Vesicular rash grade 3-4, Total (%) [9, 31]: 1 (3) patients (%)
- Vomiting grade 3-4, Total (%) [9, 31]: 1 (3) patients (%)
- Nausea grade 1-4, no. of patients ([9]; Table 4, during infusion (days 1-5), 400 mg m-2 cycle-1, 6 patients studied): 1 patients
- Nausea grade 1-4, no. of patients ([9]; Table 4, during infusion (days 1-5), 550 mg m-2 cycle-1, 6 patients studied): 2 patients
- Nausea grade 1-4, no. of patients ([9]; Table 4, during infusion (days 1-5), 700 mg m-2 cycle-1, 5 patients studied): 2 patients
- Nausea grade 1-4, Total (%) ([9]; Table 4, during infusion (days 1-5), all dose levels, 39 patients): 5 (13) patients (%)
- mild to moderate nausea and vomiting, incidence ([9]; after infusion, any causality): 31%
- fatigue, incidence in all patients ([9]; after the infusion, any causality): 51%
- anorexia considered related to SAM486A, incidence ([9]; all patients): 13%
- fatigue considered related to SAM486A, incidence ([9]; all patients): 26%
- nausea considered related to SAM486A, incidence ([9]; all patients): 26%
- vomiting considered related to SAM486A, incidence ([9]; all patients): 21%
- mild to moderate nausea and vomiting, incidence ([9]; during infusion, any causality): 15%
- changes in electrolytes, renal function, LVEF ([9]; in vivo): no significant drug-related changes
- correlation coefficient Cmax vs granulocytopenia ([9]; in vivo): 0.6794
- dose with reversible dose-limiting neutropenia ([9]; in vivo): 550 mg m^–2cycle^–1 and 700 mg m^–2cycle^–1
- fever associated with granulocytopenia ([9]; in vivo): three
- median day of granulocyte nadir ([9]; in vivo): 21 day of the cycle
- patients with grade 4 granulocytopenia ([9]; in vivo): three out of five
- patients with some worsening in performance status ([9]; in vivo): eight of the 11
- recommended dose for phase II studies ([9]; in vivo): 400 and 400 mg m-2 cycle-1
- time to spontaneous recovery from granulocyte nadir ([9]; without growth factors): ≤ 1 week
- evaluable patients with marginal trend to increased SAMDC activity ([10]; 400 mg m-2 cycle-1 and above): eight of 13
- evaluable patients with trend to increased putrescine ([10]; 400 mg m-2 cycle-1 and above): 10 of the 11
- evaluable patients with trend to increased putrescine ([10]; 3-200 mg m-2 cycle-1): six of the 12
- evaluable patients with marginal trend to increased SAMDC activity ([10]; doses up to 200 mg m-2 cycle-1): nine of 18
- expected concomitant decrease in spermidine and spermine ([10]; peripheral blood leukocytes): could not be detected
